Here are results for three compounds from patent publication US7495027B2, “3-aryl-4-hydroxyfuranone compounds and the human and animal health use thereof” (Wyeth, priority 2003, dated 2009).

≈ marks a conversion by molar mass, not a printed value. Some results are limits rather than exact numbers.

Sequence of E. coli UDP-N-acetylglucosamine enolpyruvoyl transferase, MurA (P0A749 whole entry): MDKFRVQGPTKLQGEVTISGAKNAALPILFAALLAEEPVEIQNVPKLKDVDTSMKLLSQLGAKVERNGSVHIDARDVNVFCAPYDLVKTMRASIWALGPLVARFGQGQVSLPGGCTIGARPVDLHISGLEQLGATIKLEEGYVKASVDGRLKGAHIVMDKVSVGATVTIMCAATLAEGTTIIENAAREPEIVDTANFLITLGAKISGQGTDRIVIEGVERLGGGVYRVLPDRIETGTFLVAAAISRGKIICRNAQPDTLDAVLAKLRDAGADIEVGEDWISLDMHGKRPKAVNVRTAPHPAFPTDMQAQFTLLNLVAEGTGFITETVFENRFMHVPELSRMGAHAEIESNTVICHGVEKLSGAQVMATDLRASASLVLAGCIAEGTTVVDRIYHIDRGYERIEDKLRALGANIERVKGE

For one test, the target named is E. coli UDP-N-acetylglucosamine enolpyruvoyl transferase, MurA (Escherichia coli, UniProt P0A749). In words: biochemical. The settings on record: (E) E. coli enzyme. How it is done:
Evaluation of the Inhibitory Activity of Test Compounds Against Enzymes which Catalyze Bacterial Cell Wall Biosynthesis
S. aureus and E. coli UDP-N-acetylglucosamine enolpyruvoyl transferase, MurA
(§1) Preparation of Enzyme Solution:
The enzyme solution is prepared by admixing the following: 50 mM Tris/HCl pH 8.0, […] 1 M Tris, 5 mM DTT, […] 1 M DTT, 20% Glycerol 4 ml 50% Glycerol, add water to 10 ml.
(§2) Preparation of Stop Solution:
A procedure similar to that described by C. […] Experiments are performed by adding a solution of test compound (in a mixture of dimethylsulfoxide and water) and an enzyme solution to a well. After a pre-incubation period of 10 mintues at 37° C., Tris/BME buffer and assay buffer are added. A start point optical density (OD0) reading is taken at 340 nm immediately following the addition of assay buffer. After incubation for 1 hr at 37° C., the stop solution is added and the color is allowed to develop for 30 minutes.
Regarding `Cc1ccc(C2=C(O)/C(=C/c3ccc(-c4ccc(C)cc4)cc3)OC2=O)cc1` [Example 57], the concentration for half-maximal inhibition (IC50) is > 67.9 µM.

In turn, `CC(C)(C)c1ccc(-c2ccc(C3=C(O)/C(=C/c4cc(C(F)(F)F)ccc4F)OC3=O)cc2)cc1` [Example 120] showed a half-inhibitory concentration (IC50) of 8.29 µM.

Consider `CCOc1ccc(-c2ccc(C3=C(O)/C(=C/c4cc(C(F)(F)F)ccc4F)OC3=O)cc2)cc1` [Example 122], for which the half-inhibitory concentration (IC50) is 34 µM.

In a further test the target is E. coli Enopyruvyl-UPD-N-acetylglucosamine reductase, Mur B (Escherichia coli, UniProt P08373). In words: biochemical. The settings on record: (E) E. coli enzyme; read-out: MurB IC50 (converted). How it is done: S. aureus and E. coli Enopyruvyl-UPD-N-acetylglucosamine reductase, Mur B
Sequence of E. coli Enopyruvyl-UPD-N-acetylglucosamine reductase, Mur B (P08373 whole entry): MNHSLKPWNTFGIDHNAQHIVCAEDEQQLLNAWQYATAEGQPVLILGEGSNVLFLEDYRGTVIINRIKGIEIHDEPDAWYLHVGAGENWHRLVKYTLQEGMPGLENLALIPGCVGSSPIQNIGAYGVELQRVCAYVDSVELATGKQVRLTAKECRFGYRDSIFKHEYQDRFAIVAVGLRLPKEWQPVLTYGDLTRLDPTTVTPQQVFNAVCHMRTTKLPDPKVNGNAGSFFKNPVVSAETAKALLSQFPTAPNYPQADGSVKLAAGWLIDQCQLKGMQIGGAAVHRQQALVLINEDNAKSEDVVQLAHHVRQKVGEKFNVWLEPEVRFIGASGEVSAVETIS
Preparation of Tris/BME buffer:
Dilute 17.5 uL of aqueous 5 mM BME (2-mercaptoethanol) to 50 mL with 50 mM Tris/HCl (pH 8.0).
as §1
Dilute aqueous MurB stock solution (0.94 mg/mL) with 200 parts 50 mM Tris/2-BME buffer.
Synthesis of Substrate for MurB (MurA Product EP-UDP-GluNAc):
A mixture of 13 mg UDP-N-acetylglucosamine and 5.5 mg phosphoenolpyruvate are dissolved in 10 mL Tris/BME buffer forming 2 mM concentrations of each reagent in solution.
Preparation of Assay Buffer:
The assay buffer is prepared in water from reagents with the following final concentrations: 100 mM Tris/HCl (pH 8.0), 200 μM NADPH, 100 μM MurB substrate, 10 μM 2-mercaptoethanol, and 10 μM KCl.
Experiments are performed by adding 20 μL of a solution of test compound in a mixture of dimethylsulfoxide and water and 30 μL of enzyme solution to a well. After a pre-incubation period of 20 mins. at 23° C., 50 μL of Tris/BME buffer and 100 μL of assay buffer are added. […] Controls are performed using the same procedure and employing 20 μL of a blank dimethylsulfonide and solvent mixture in place of the test compound solution.
Using these values, the IC50 for each test compound is determined by linear regression analysis.
For `Cc1ccc(C2=C(O)/C(=C/c3ccc(-c4ccc(C)cc4)cc3)OC2=O)cc1` [Example 57], the IC50 is 16.3 µM.

Regarding `CC(C)(C)c1ccc(-c2ccc(C3=C(O)/C(=C/c4cc(C(F)(F)F)ccc4F)OC3=O)cc2)cc1` [Example 120], the IC50 is 10.4 µM.

For `CCOc1ccc(-c2ccc(C3=C(O)/C(=C/c4cc(C(F)(F)F)ccc4F)OC3=O)cc2)cc1` [Example 122], the half-maximal inhibitory concentration (IC50) was 29.8 µM.

For a further test, the target named is E. coli Uridine-diphosphate-N-acetvimuramoyl: L-alanine lipase, MurC (Escherichia coli, UniProt P17952). In words: Inhibitory activity against MurC (E. coli). The class given is biochemical. The settings on record: (E) E. coli enzyme; read-out: MurC IC50 (converted).
Sequence of E. coli Uridine-diphosphate-N-acetvimuramoyl: L-alanine lipase, MurC (P17952 whole entry): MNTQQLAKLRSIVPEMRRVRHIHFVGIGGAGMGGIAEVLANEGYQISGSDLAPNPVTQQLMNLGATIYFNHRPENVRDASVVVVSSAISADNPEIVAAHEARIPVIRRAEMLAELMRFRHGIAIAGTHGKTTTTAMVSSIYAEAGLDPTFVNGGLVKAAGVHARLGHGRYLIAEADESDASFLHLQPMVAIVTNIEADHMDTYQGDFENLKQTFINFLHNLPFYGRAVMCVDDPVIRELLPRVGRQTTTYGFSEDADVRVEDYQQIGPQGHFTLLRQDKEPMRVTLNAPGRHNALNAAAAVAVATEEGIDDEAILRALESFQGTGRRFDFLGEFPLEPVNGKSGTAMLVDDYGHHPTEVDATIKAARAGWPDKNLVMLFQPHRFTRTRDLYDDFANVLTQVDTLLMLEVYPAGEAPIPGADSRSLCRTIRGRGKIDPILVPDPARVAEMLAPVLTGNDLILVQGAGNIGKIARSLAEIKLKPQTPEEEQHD
With `Cc1ccc(C2=C(O)/C(=C/c3ccc(-c4ccc(C)cc4)cc3)OC2=O)cc1` [Example 57], the half-maximal inhibitory concentration (IC50) is 54.3 µM.

Turning to `CC(C)(C)c1ccc(-c2ccc(C3=C(O)/C(=C/c4cc(C(F)(F)F)ccc4F)OC3=O)cc2)cc1` [Example 120], the IC50 is 47.7 µM.

For the compound `CCOc1ccc(-c2ccc(C3=C(O)/C(=C/c4cc(C(F)(F)F)ccc4F)OC3=O)cc2)cc1` [Example 122], the IC50 is > 53.1 µM.

In the next test the target is T1, S. aureus Uridine-diphosphate-N-acetylmuramoyl-L-alanine: D-glutamate liease, MurD (Staphylococcus aureus, UniProt Q2FZ92).
T1 sequence (Q2FZ92 1-449): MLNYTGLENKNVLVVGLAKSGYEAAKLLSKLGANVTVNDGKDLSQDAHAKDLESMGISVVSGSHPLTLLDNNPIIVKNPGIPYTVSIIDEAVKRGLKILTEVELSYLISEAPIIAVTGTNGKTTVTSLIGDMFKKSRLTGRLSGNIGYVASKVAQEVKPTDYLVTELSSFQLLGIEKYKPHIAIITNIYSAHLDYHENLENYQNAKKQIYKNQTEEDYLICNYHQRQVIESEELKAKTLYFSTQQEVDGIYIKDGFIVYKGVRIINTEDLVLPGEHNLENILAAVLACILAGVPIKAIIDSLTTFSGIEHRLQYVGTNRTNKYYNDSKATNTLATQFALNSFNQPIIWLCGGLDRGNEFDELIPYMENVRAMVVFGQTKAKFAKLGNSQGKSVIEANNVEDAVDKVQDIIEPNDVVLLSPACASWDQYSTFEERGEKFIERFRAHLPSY
As to the kind of experiment: biochemical. The settings on record: (S) S. aureus enzyme. How it is done:
(§3) S. aureus and E. coli Uridine-diphosphate-N-acetylmuramoyl-L-alanine: D-glutamate liease, MurD
as §1
(§4) Preparation of Test Compound Solutions:
(§5) All test solutions are prepared in DMSO as 10 mg/mL, then diluted with 50 mM Tris/HCl (pH 8.5) to 100 μg/mL.
as §2
(§6) In this evaluation, the inhibitory activity of a test compound against MurD, the enzyme which catalyzes the fourth step of bacterial cell wall biosynthesis is determined.
On to `Cc1ccc(C2=C(O)/C(=C/c3ccc(-c4ccc(C)cc4)cc3)OC2=O)cc1` [Example 57], for which the IC50 is 51.6 µM.

In a further test the target is E. coli Uridine-diphosphate-N-acetylmuramoyl-L-alanine: D-glutamate liease, MurD (Escherichia coli, UniProt P14900). In words: biochemical. The settings on record: (E) E. coli enzyme. How it is done: as §3
Sequence of E. coli Uridine-diphosphate-N-acetylmuramoyl-L-alanine: D-glutamate liease, MurD (P14900 whole entry): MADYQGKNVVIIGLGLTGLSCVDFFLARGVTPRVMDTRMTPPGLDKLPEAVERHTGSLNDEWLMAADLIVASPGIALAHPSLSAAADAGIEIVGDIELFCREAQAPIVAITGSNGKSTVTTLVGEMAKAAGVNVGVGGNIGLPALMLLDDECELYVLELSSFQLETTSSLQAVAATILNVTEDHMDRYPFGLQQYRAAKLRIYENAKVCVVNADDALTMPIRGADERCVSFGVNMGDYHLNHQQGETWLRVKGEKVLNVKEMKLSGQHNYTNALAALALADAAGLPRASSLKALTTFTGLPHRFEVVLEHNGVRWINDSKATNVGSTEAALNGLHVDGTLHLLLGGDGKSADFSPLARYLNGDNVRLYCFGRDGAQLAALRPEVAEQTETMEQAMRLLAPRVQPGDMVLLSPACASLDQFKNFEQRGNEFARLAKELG
The buffer is prepared from aqueous reagents with the following final concentrations: 83 mM Tris/HCl (pH 8.0), 50 mM MgCl2, and 2 mM ATP.
as §1, §4, §5, §2, §6
Compound `Cc1ccc(C2=C(O)/C(=C/c3ccc(-c4ccc(C)cc4)cc3)OC2=O)cc1` [Example 57] had an IC50 of 46.1 µM.

In turn, `CC(C)(C)c1ccc(-c2ccc(C3=C(O)/C(=C/c4cc(C(F)(F)F)ccc4F)OC3=O)cc2)cc1` [Example 120] showed an IC50 of 33.2 µM.

With `CCOc1ccc(-c2ccc(C3=C(O)/C(=C/c4cc(C(F)(F)F)ccc4F)OC3=O)cc2)cc1` [Example 122], the half-maximal inhibitory concentration (IC50) is > 53.1 µM.

The subject of another test is staphylococci. As to the kind of experiment: Minimum inhibitory concentration, microdilution broth method, staphylococci. The format is cell-based. The settings on record: Staphylococcus aureus, S. aureus GC 1131; Mueller-Hinton broth, 18-22 hours at 35° C.; read-out: MIC S. aureus GC 1131. The gist of the method: (§7)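 MIC by microdilution, NCCLS M7-A5. Media: MH broth (staph, enterococci); MH + 5% lysed horse blood (strep). Strains incl. methicillin-, penicillin- and/or vancomycin-resistant clinical isolates.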
Background: In broth dilution the organism is exposed to a series of concentrations in liquid medium.
`Cc1ccc(C2=C(O)/C(=C/c3ccc(-c4ccc(C)cc4)cc3)OC2=O)cc1` [Example 57]: the MIC came out at 32 µg/mL (≈ 86.9 µM).

Regarding `CC(C)(C)c1ccc(-c2ccc(C3=C(O)/C(=C/c4cc(C(F)(F)F)ccc4F)OC3=O)cc2)cc1` [Example 120], the minimum inhibitory concentration (MIC) is 16 µg/mL (≈ 33.2 µM).

`CCOc1ccc(-c2ccc(C3=C(O)/C(=C/c4cc(C(F)(F)F)ccc4F)OC3=O)cc2)cc1` [Example 122]: the MIC was determined as 16 µg/mL (≈ 34 µM).

Staying with this test, now noted: Staphylococcus aureus, S. aureus GC 4543; Mueller-Hinton broth, 18-22 hours at 35° C.; read-out: MIC S. aureus GC 4543.
On to `Cc1ccc(C2=C(O)/C(=C/c3ccc(-c4ccc(C)cc4)cc3)OC2=O)cc1` [Example 57], for which the MIC came out at 4 µg/mL (≈ 10.9 µM).

In the case of `CC(C)(C)c1ccc(-c2ccc(C3=C(O)/C(=C/c4cc(C(F)(F)F)ccc4F)OC3=O)cc2)cc1` [Example 120], the minimum inhibitory concentration (MIC) worked out at 16 µg/mL (≈ 33.2 µM).

In the case of `CCOc1ccc(-c2ccc(C3=C(O)/C(=C/c4cc(C(F)(F)F)ccc4F)OC3=O)cc2)cc1` [Example 122], the MIC amounted to 16 µg/mL (≈ 34 µM).

A further test concerns enterococci. In words: Minimum inhibitory concentration, microdilution broth method, enterococci. The format is cell-based. The settings on record: Enterococcus faecalis, E. faecalis GC 2242; Mueller-Hinton broth, 18-22 hours at 35° C.; read-out: MIC E. faecalis GC 2242. The gist of the method:
as §7
On to `Cc1ccc(C2=C(O)/C(=C/c3ccc(-c4ccc(C)cc4)cc3)OC2=O)cc1` [Example 57], for which the MIC was found to be 2 µg/mL (≈ 5.43 µM).

On to `CC(C)(C)c1ccc(-c2ccc(C3=C(O)/C(=C/c4cc(C(F)(F)F)ccc4F)OC3=O)cc2)cc1` [Example 120], for which the minimum inhibitory concentration (MIC) came out at 4 µg/mL (≈ 8.29 µM).

As to `CCOc1ccc(-c2ccc(C3=C(O)/C(=C/c4cc(C(F)(F)F)ccc4F)OC3=O)cc2)cc1` [Example 122], the MIC came to 8 µg/mL (≈ 17 µM).

Still in this test, the particulars now being: Enterococcus faecalis, E. faecalis GC 4555; Mueller-Hinton broth, 18-22 hours at 35° C.; read-out: MIC E. faecalis GC 4555.
Take `Cc1ccc(C2=C(O)/C(=C/c3ccc(-c4ccc(C)cc4)cc3)OC2=O)cc1` [Example 57]: the minimal inhibitory concentration (MIC) is 8 µg/mL (≈ 21.7 µM).

Turning to `CC(C)(C)c1ccc(-c2ccc(C3=C(O)/C(=C/c4cc(C(F)(F)F)ccc4F)OC3=O)cc2)cc1` [Example 120], the MIC stood at 8 µg/mL (≈ 16.6 µM).

With `CCOc1ccc(-c2ccc(C3=C(O)/C(=C/c4cc(C(F)(F)F)ccc4F)OC3=O)cc2)cc1` [Example 122], the MIC is 32 µg/mL (≈ 68 µM).

The test system of a further test is Streptococci. As to the kind of experiment: Minimum inhibitory concentration, microdilution broth method, streptococci. The class given is cell-based. The settings on record: S. pneumo GC 1894; Mueller-Hinton broth with 5% horse blood, 18-22 hours at 35° C. A digest of the protocol:
as §7
As to `Cc1ccc(C2=C(O)/C(=C/c3ccc(-c4ccc(C)cc4)cc3)OC2=O)cc1` [Example 57], the MIC is < 0.125 µg/mL.

`CC(C)(C)c1ccc(-c2ccc(C3=C(O)/C(=C/c4cc(C(F)(F)F)ccc4F)OC3=O)cc2)cc1` [Example 120] displayed a minimum inhibitory concentration (MIC) of 0.5 µg/mL (≈ 1.04 µM).

For the compound `CCOc1ccc(-c2ccc(C3=C(O)/C(=C/c4cc(C(F)(F)F)ccc4F)OC3=O)cc2)cc1` [Example 122], 1 µg/mL (≈ 2.13 µM) was the least that counted as inhibitory (MIC).

Usually IC50 stands for the point on the concentration scale where inhibition reaches its midpoint. What is called MIC is the smallest concentration in the dilution series that meets the test's criterion for growth inhibition.
